Measured values as given in publication PMC3655044, “Construction of a chimeric thermoacidophilic beta-endoglucanase” (BMC Biochemistry, 2013).

Tested on: T1, CelA-SSO1949-CelA
T1 construct: 70 aa CelA + 163 aa SSO1949 + 29 aa CelA, 262 aa, ~29 kDa, no purification tag
Assay: FRET fluorescence assay, initial rates
Format: biochemical, Thermotoga maritima; Saccharolobus solfataricus
Conditions: 80°C; pH 3; 0.1 M sodium phosphate
Excerpt: FRET fluorescence assay, initial rates on CelA-SSO1949-CelA

Km: 1.74 ± 0.15 µM
Compound: CN(C)c1ccc(/N=N/c2ccc(NC(=S)N[C@H]3[C@H](O)[C@@H](O)[C@H](O[C@H]4[C@H](O)[C@@H](O)[C@H](O[C@H]5[C@H](O)[C@@H](O)[C@H](O[C@H]6[C@H](O)[C@@H](O)[C@H](O[C@H]7[C@H](O)[C@@H](O)[C@H](O[C@H]8[C@H](O)[C@@H](O)[C@H](SCC(=O)NCCNc9cccc%10c(S(=O)(=O)O)cccc9%10)O[C@@H]8CO)O[C@@H]7CO)O[C@@H]6CO)O[C@@H]5CO)O[C@@H]4CO)O[C@@H]3CO)cc2)cc1 [fluorescent cellohexaoside, sodium N-{2-N-[(S-(4-deoxy-4-dimethylamino-phenylazophenylthioureido-β-D-glucopyranosyl)-(1→4)-β-D-glucopyranosyl-(1→4)-β-D-glucopyranosyl-(1→4)-β-D-glucopyranosyl-(1→4)-β-D-glucopyranosyl-(1→4)-β-D-glucopyranosyl)-2-thioacetyl]aminoethyl}-1-naphthylamine-5-sulphonate]
